The nature of this assay: Cytotoxicity against mouse IC2 cells. The class given is functional, cell-based.

Data on two molecules can be found in ChEMBL document CHEMBL1151251, “Monanchorin, a bicyclic alkaloid from the sponge Monanchora ungiculata” (J Nat Prod, 2004).

Converted amounts (≈) assume the structure as drawn.

Regarding `CC[C@@H]1C=CCC[C@]2(C[C@H]3CC[C@H]4[C@@H](C(=O)O)[C@@]5(CCC[C@H](C)O5)N=C(N2)N34)O1` [CRAMBESIDIN ACID], the IC50 (usually the concentration that gives 50% inhibition) amounted to 25 µg/mL (≈ 62 µM). Then `CCCCC[C@@H]1O[C@@H]2CC[C@@H]1NC(=N)N2` [MONANCHORIC ACID], with 11.3 µg/mL (≈ 53.5 µM).
